Each structure is given as a SMILES string. Non-standard residues stand in square brackets, D forms with d. Residues, ends and D or L forms follow the SMILES beside them. pGlu = O=C1CC[C@@H](C(=O)O)N1; azaGly = NNC(=O)O

Data set [1] deals with human term placental explants. The experiment in a line: Static explant culture, release of hCG, progesterone, PGE2. Format: cell-based. The source says:
The biological activity of the newly synthesized non-mammalian GnRH analogs was studied using a static implant culture system. This system allows for inexpensive extended activity studies. Mammalian GnRH action on the human placenta release of hCG, progesterone and prostaglandins were defined using this system. Replicate cultures were studied, thus allowing for comparison of different doses of each non-mammalian GnRH analog to mammalian GnRH (SEQ ID NO: 5), as well as direct competition assays. […] These studies were repeated using different human placentas. Siler-Khodr T M, Khodr G S, Valenzuela G, Rhode J 1986 Gonadotropin-releasing hormone effects on placental hormones during gestation: II. Progesterone, estrone, estradiol and estriol. Biol Reprod 34:255-264; Siler-Khodr T M, Khodr G S, Valenzuela G, Rhode J 1986 Gonadotropin-releasing hormone effects on placental hormones during gestation: 1 Alpha-human chorionic gonadotropin, human chorionic gonadotropin and human chorionic somatomammotropin. Biol Reprod 34:245-254; Siler-Khodr T M, Khodr G S, Valenzuela G, Harper J, Rhode J 1986 GnRH effects on placental hormones during gestation. 111 Prostaglandin E, prostaglandin F, and 13, 14-dihydro-15-keto-prostaglandin F. Biol Reprod 35:312-319.
In these and additional studies, an explant culture system was used to determine the effect of mammalian GnRH (SEQ ID NO: 5), chicken II GnRH (SEQ ID NO: 6), or the D-Arg(6)-chicken II GnRH-aza-Gly(10)-amide analog (SEQ ID NO: 2) on the release of the hCG, progesterone, and prostaglandin E2. Human term placentas were dissected free of membranes, minced into fragments of 5 mm, rinsed in medium, and a total weight of ˜100 mg (20 explants) was placed on a sterile filter paper resting on an organ culture grid such that they touched the surface of the culture medium, but were not immersed in it. The medium contained penicillin, streptomycin, and fungizone at 100 U/mL, 100 μg/mL, and 2.5 μg/mL respectively with and without varying doses of GnRH isoforms or analogs was added to each Petri dish. Triplicate chambers for each media were made and incubated at 37 C in a humidified chamber with an atmosphere of 5% CO2 and 95% air. Spent media were collected and replaced after 2 hours, 24 hours, and 48 hour of culture and stored frozen at −20° C. until assayed for hormones. HCG, progesterone, and PGE2 were measured using specific double antibody procedures as described previously. The chicken II GnRH analog (SEQ ID NO: 2) was studied using four different human term placentas, and the native chicken II GnRH isoform was also studied using one human term placenta. Gibbons J M, Mitnick M, Chieffo V 1975 In vitro biosynthesis, of TSH- and LH-releasing factors by the human placenta. Am J Obstet Gynecol 121:127-131.

Data set [2] has as its target baboon ovary GnRH receptor. Description: Baboon ovary membrane GnRH receptor binding. The note with it: baboon ovary membranes; read-out: GnRH receptor affinity. The protocol: The receptor binding activity of newly synthesized non-mammalian GnRH analogs was studied in ovarian and uterine tissues. […] The ovaries of the three baboons were extracted and the cytosolic and membrane fractions were recovered for the tissues. The membrane fraction from one animal was titred for GnRH receptor binding activity using D-Arg(6)-chicken II GnRH-aza-Gly(10)-amide radiolabeled ligand. Receptors were clearly demonstrable even at 4 μg membrane protein/tube. […] The chicken II GnRH analog (SEQ ID NO: 2) had the highest affinity for any GnRH analog reported to date.

For data set [3], the target named is baboon endometrium (stroma and epithelium) receptor. The experiment in a line: Baboon endometrium receptor binding. The note with it: read-out: receptor affinity. The source says:
(§1) Due to the limited number of cells it was not possible to precisely define the affinity of this receptor.

Data set [4] concerns human granulosa cells receptor. The experiment in a line: Human granulosa cell receptor binding.
Source text: as §1

Data set [5] deals with baboon uterine tissue GnRH receptor. The experiment in a line: Baboon uterine tissue GnRH receptor binding. The source says: These chicken II GnRH analogs (SEQ ID NO: 2) may have particular applicability for regulation of implantation and in uterine tissue conditions, such as endometriosis, abnormal uterine bleeding, and leiomyomas. Thus, high affinity receptors for chicken II GnRH analogs (SEQ ID NO: 2) have been defined in baboon ovary and uterus tissues.

The test system of another data set is rhesus monkey. Description: Contraceptive activity in mated rhesus monkeys, osmotic mini-pump. Format: in vivo. The source says:
In these studies we examined the effect of a stable analog of chicken II GnRH on ovarian steroidogenesis, implantation and maintainence of pregnancy in the rhesus monkey. We administered this chicken II GnRH analog (SEQ ID NO: 2) or saline via osmotic mini-pumps from Day 1-6, Day 6-11 or Day 11-17 to regularly cycling monkeys mated with fertile males around the time of ovulation. Circulating estradiol (E2) and progesterone (P) in the luteal phase was observed as well as cycle length in this and subsequent cycle. Implantation and pregnancy were confirmed by circulating CG and continued progesterone production. […] In animals treated on day 6-11 or days 11-17, no effect on luteinization or cycle length was noted; and two of five (40.0%), and one of three animals (33.3%), respectively, implanted with normal pregnancies resulting.

Another data set relates to human sperm. The experiment in a line: Human sperm motility in vitro. Format: cell-based. The protocol: Normal human sperm ([…]) were obtained with seminal plasma and the motility of the sperm was assessed microscopically. Both the fraction of motile sperm and the forward sperm motion were assessed. These parameters were measured just prior to a 1:5 dilution with phosphate buffered saline containing 0 to 200 nM chicken II GnRH analog (SEQ ID NO: 2). The motility and motion of the sperm were assessed at 2, 30, 60, 90, 120 and 180 minutes after incubation at 37 C. […] By 180 minutes the motility of the control had fallen to that of all the treated sperm.

Data set [6] deals with baboon ovarian enzymatic activity.
Experimental: In these studies the enzyme was in the ovarian extract.
In this assay, following incubation of the enzyme and GnRH, with and without the chosen analog, the reaction was stopped by heating and the remaining GnRH substrate was quantified by radioimmunoassay. The product formed is calculated by subtraction, and its inverse plotted against the inverse of the original substrate concentrations to determine the nature of the competition. The Ki was determined by plotting the inverse of the product formed versus the inhibitor used.
The target of data set [7] is chorionic peptidase-1 (C-ase-1). The experiment in a line: C-ase-1 enzyme activity assay, competition for degradation of GnRH. The note with it: competition for degradation of mammalian GnRH, Example III.

For `N=C(N)NCCC[C@@H](NC(=O)[C@H](Cc1c[nH]cn1)NC(=O)[C@H](CO)NC(=O)[C@H](Cc1c[nH]c2ccccc12)NC(=O)[C@H](Cc1c[nH]cn1)NC(=O)[C@@H]1CCC(=O)N1)C(=O)N[C@@H](Cc1c[nH]c2ccccc12)C(=O)N[C@@H](Cc1ccc(O)cc1)C(=O)N1CCC[C@H]1C(=O)NNC(N)=O` [D-Arg(6)-chicken II GnRH-aza-Gly(10)-amide] ([pGlu]HWSH[dR]WYP[azaGly]-NH2), the “progesterone release at higher concentrations” value in data set [1] was “also inhibited”. Further, the “effect on hCG at higher concentrations” value in data set [1] (1-9 μM) is on record as “inhibition of hCG”. Besides, the PGE2 release result in data set [1] (2 and 24 hours) was “not significantly changed”. Also, the “hCG release after 2, 24 and 48 hours of treatment” value in data set [1] (P<0.05) is listed as “significant dose-related inhibition”. The “stimulation of hCG” value in [1] (first two hours, lowest concentration 250 nM) is “as much as a three fold stimulation”. Also, the “hCG in presence of exogenous GnRH” value in data set [1] (three placentas, later studies) is “inhibition of hCG”. Also, the Kd in [2] is 10 nM; in data set [3] it was about 60 nM. The receptor binding entry in data set [4] is “receptor binding for the GnRH analog was observed”. In data set [5], the “binding affinity, in words” value is “high binding affinity”. Also, the pregnancies entry in the data set on rhesus monkey (treated Day 1-6) is listed as “no pregnancies resulted”. In addition, in the data set with rhesus monkey (treated day 1-6), the “effect on progesterone production or cycle length” value is “no significant effect”. Moreover, the “animals implanted with normal pregnancies” value is 40.0% in the data set with rhesus monkey (treated day 6-11, two of five) and 33.3% in the data set on rhesus monkey (treated days 11-17, one of three). Further, the “effect on luteinization or cycle length” value in the data set on rhesus monkey (treated day 6-11 or days 11-17) is “no effect”. Also, the “forward motion of remaining motile sperm” value in the data set on human sperm is on record as “maintained a high grade”. Also, the “time until inhibition of motility” value with human sperm (2 nM) came to 30 min. Further, the sperm motility entry with human sperm (20 to 200 nM) is on record as “initially inhibited”. Moreover, in [6], the “stability compared with mammalian GnRH” value is on record as “more than 50 times”. For the same molecule, the values for the Ki in [6] (competition with degradation of mammalian GnRH) and in data set [7] were at least 1500 nM and over 400 nM, respectively.

The record behind these values is patent US20050282745A1, “Non-mammalian GnRH analogs and uses thereof in regulation of fertility and pregnancy” (priority 2001, published 2005).
